Results taken from patent publication EP1614683B1, “Indazole compounds and pharmaceutical compositions for inhibiting protein kinases, and methods for their use” (priority 1999, dated 2001).
Like-named read-outs stand apart in the source and are kept apart here.

Experiments:
[1] = target: T1, human CHK1 (FL-CHK1) (Homo sapiens, UniProt O14757); assay: CHK1 coupled spectrophotometric assay; type: biochemical; conditions: read-out: CHK -1* (% inhibition)
T1 construct: C-terminally His-tagged full-length human CHK1 (FL-CHK1) was expressed using the baculovirus/insect cell system; made in house; host or cells: baculovirus/insect cell system
T1 sequence (O14757 1-476): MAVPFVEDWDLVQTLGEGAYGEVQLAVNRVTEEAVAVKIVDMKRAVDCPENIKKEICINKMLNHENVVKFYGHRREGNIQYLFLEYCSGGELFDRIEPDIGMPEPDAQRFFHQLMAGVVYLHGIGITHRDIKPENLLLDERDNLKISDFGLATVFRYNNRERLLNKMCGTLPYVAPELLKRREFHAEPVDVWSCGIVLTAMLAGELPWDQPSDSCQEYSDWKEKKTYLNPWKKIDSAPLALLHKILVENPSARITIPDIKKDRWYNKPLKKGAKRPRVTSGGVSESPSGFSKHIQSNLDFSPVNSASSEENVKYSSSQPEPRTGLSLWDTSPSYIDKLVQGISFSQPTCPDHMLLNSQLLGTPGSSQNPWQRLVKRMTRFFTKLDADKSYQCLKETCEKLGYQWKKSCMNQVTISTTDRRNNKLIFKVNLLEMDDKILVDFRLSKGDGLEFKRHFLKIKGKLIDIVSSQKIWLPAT
Outline: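 His-tagged full-length human CHK1 from baculovirus/insect cells, 10 nM, phosphorylating Syntide-2. ADP formation coupled via PK/LDH with PEP to NADH oxidation, followed as absorbance decrease at 340 nm. Ki from initial rates at varying compound concentrations.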

[2] = target: T2, human FAK (FAKcd409) (Homo sapiens, UniProt Q05397, P410T); assay: FAK fluorescence polarization assay; type: biochemical; conditions: Table 5; 1 µM; read-out: % Inhibition @ 1 µM FAK
T2 construct: comprises residues methionine 409 to glutamate 689; made in house; host or cells: baculovirus vector expression system (insect cells)
Outline: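 Baculovirus-expressed FAK catalytic domain (FAKcd409, 5 nM) phosphorylating 1 mg/ml poly Glu-Tyr (4:1) with 1 mM ATP in 100 mM Hepes pH 7.5, 10 mM MgCl2, 1 mM DTT. Stopped with EDTA; fluorescent peptide and anti-phosphotyrosine antibody added, product detected by fluorescence polarization.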

[3] = target: CDK2/Cyclin A complex (Homo sapiens, UniProt P24941); assay: CDK2/Cyclin A assay ([32P]ATP incorporation into Rb fragment); type: biochemical; conditions: read-out: CDK2 * (% inhibition)
[4] = test system: human umbilical vein endothelial cells (HUVEC); assay: HUVEC proliferation assay (VEGF-stimulated, MTT); type: cell-based; conditions: Homo sapiens, HUVEC, Table 1
[5] = target: LCK tyrosine kinase (Homo sapiens, UniProt P06239, C224D/P223M); assay: LCK spectrophotometric assay; type: biochemical; conditions: Table 1; compound concentration 1 µM; read-out: Lck-P* (% inhibition)
Procedure: The spectrophotometric assay was carried out as described above for VEGF-R2, except for the following changes in concentration: LCK = 60 nM, MgCl2 = 0 mM, poly(E4Y1) = 20 mM.

[6] = in vitro; type: in vitro ADME, human; conditions: human liver microsomes, 5 µM test compound, 37 °C, 2 h
Outline: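 HLM diluted to 5 mg/mL in 100 mM KPO4, preincubated 10 min at 37 °C with NADPH-regenerating system. Compound (5 µM final) incubated at 37 °C in triplicate, sampled at 0 and 2 h into ice-cold acetonitrile, then LC-MS analysis.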

[7] = + albumin, read-out: HUVEC + albumin IC50

T2 sequence (Q05397 409-689 P410T): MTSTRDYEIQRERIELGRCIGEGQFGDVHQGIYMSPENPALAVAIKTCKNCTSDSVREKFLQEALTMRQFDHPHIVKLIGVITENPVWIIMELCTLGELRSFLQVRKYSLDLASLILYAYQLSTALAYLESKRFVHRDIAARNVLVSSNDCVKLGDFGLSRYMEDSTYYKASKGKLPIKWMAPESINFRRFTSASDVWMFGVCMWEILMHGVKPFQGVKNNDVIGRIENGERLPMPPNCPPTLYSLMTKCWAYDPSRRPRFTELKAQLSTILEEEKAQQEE
Sequence of LCK tyrosine kinase (P06239 223-509 P223M/C224D): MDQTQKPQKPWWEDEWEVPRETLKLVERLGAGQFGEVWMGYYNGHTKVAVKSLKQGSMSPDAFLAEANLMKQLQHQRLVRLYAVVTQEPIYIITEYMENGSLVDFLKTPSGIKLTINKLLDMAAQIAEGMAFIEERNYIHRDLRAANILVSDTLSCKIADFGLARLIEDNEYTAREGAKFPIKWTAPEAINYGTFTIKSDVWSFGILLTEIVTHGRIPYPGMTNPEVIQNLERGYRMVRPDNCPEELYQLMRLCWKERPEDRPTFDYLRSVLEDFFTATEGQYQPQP

| SMILES | inhibition at 1 µM [1] [%] | inhibition at 1 µM [2] [%] | inhibition at 1 µM [3] [%] | IC50 [4, 7] [nM] | IC50 ([4]; read-out: HUVEC IC50) [nM] | inhibition at 1 µM [5] [%] | % remain (HLM, 2 h) [6] [%] |
| --- | --- | --- | --- | --- | --- | --- | --- |
| CCn1nc(C)cc1C(=O)Nc1cccc(Oc2ccc3c(/C=C/c4ccccn4)n[nH]c3c2)c1 [Reference Example 31(d), 6-[3-((1-Ethyl-3-methyl-1H-pyrazol-5-yl)carboxamido)phenoxy]-3-E-[2-(pridin-2-yl)ethenyl]-1H-indazole] | 0 | 6 | 5 | ~13 | 1.3 | 52 | 110 |
| C#CCNC(=O)c1ccccc1Sc1ccc2c(/C=C/c3ccccn3)n[nH]c2c1 [Reference Example 35(cc), 6-[2-(2-Propynylcarbamoyl)phenylsulfany]-3-E-[2-(pyridin-2-yl)ethenyl]-1H-indazole] | 0 | 7 | 5 | 1.6 | 0.05 | 15 | 31 |
| CCONC(=O)c1ccccc1Sc1ccc2c(/C=C/c3ccccn3)n[nH]c2c1 [Reference Example 35(dd), 6-[2-(ethoxycarbamoyl)phenylsufanyl]-3-E-[2-(pyridin-2-yl)ethenyl]-1H-indazole] | 0 | 4 | 7 | 2.9 | 0.18 | 17 | 26 |
| CC(C)ONC(=O)c1ccccc1Sc1ccc2c(/C=C/c3ccccn3)n[nH]c2c1 [Reference Example 35(k)] | 0 | 7 | 8 | 2.2 |  | 6 | 14 |
| O=C(NNc1ccccn1)c1ccccc1Sc1ccc2c(/C=C/c3ccccn3)n[nH]c2c1 [Reference Example 35(n), 6-[2-(N^2-(pyrid-2-ylhydrazino)carbonyl)phenylsulfanyl]-3-E-[2-(pyridin-2-yl)ethenyl]-1H-indazole] | 23 | 1 | 4 | 11 | 0.11 | 58 | 47 |
| CCn1nc(C)cc1C(=O)Nc1cccc(C(=O)c2ccc3c(/C=C/c4ccccn4)n[nH]c3c2)c1 [Reference Example 41(a), 6-[3-((1-Ethyl-3-methyl-1H-pyrazol-5-yl)carboxamido)benzoyl]. 3-E-[2-(pyridin-2-yl)ethenyl]-1H-indazole] | 0 | 5 | 0 | 4.4 | 0.48 | 50 | 96 |
| CCn1nc(C)cc1C(=O)Nc1cc(C(=O)c2ccc3c(/C=C/c4ccccn4)n[nH]c3c2)ccc1C [Reference Example 41(ee), 6-[3-((1-Ethyl-3-methyl-1H-pyrazol-5-yl)carboxamido)-4-methylbenzoyl]-3-E-[2-(pyridin-2-yl)ethenyl]-1H-indazole] | 0 | 7 | 0 | 4.3 | 0.24 | 13 | 47 |
| CCCn1nc(C)cc1C(=O)Nc1cccc(C(=O)c2ccc3c(/C=C/c4ccccn4)n[nH]c3c2)c1 [Reference Example 41(r)] | 0 | 5 | 0 | 11 |  | 55 | 83 |
